Data: paper PMC4277498 (Cell reports, 2014)

Legend:
gpr126 mutant zebrafish = details: forskolin-induced cAMP elevation, ref Monk et al., 2009; cited from earlier work
[1] = test system: β-adrenergic receptor endogenously expressed in COS-7 cells; details: COS-7 with endogenous β-adrenergic receptor

Compound | reversal of peripheral myelination phenotype (gpr126 mutant zebrafish) | dynamic mass redistribution response (EPIC) [1]
C=C[C@@]1(C)CC(=O)[C@]2(O)[C@@]3(C)[C@@H](O)CCC(C)(C)[C@@H]3[C@H](O)[C@H](OC(C)=O)[C@@]2(C)O1 [forskolin] | reversible | 
CC(C)NCC(O)c1ccc(O)c(O)c1 (centres unmarked) [isoprenaline] |  | concentration-dependent cellular responses
